Measured values: patent publication US9914730B2, “Azaquinazoline inhibitors of Atypical protein Kinase C” (Ignyta, Inc., priority 2012, dated 2018)
pIC50: −log10 of the molar value.

Target: T1, full-length human PKCι (Homo sapiens, UniProt P41743)
T1 construct: Recombinant, full-length human PKCι expressed in Sf21 insect cells is also commercially available; purchased; host or cells: Sf21 insect cells
T1 sequence (P41743 1-596): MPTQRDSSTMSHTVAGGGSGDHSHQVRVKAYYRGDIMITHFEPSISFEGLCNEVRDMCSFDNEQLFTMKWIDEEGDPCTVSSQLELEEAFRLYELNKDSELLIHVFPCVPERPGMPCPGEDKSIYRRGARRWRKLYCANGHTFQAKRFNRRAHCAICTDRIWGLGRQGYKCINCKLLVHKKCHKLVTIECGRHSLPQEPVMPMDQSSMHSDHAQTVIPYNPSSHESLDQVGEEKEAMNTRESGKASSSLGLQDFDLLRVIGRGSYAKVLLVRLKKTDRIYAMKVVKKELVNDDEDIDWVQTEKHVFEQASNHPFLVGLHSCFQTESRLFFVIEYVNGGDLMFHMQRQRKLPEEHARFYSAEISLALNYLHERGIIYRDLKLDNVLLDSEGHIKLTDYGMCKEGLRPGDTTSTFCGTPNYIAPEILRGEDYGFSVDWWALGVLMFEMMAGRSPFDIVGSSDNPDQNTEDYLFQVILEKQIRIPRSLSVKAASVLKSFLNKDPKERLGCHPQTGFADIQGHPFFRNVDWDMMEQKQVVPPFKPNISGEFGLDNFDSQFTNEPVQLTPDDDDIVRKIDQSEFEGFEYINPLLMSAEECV
Assay: PKCι IC50 IMAP assay, full-length PKCι at 150 μM ATP
Format: biochemical
Conditions: read-out: IC50 in IMAP assay against full length PKCi at 150 μM ATP
How it was run: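 IC50 from IMAP FP (ex 485/em 530 nm) after 60 min room-temperature reaction in pH 7.5 tris buffer with 9 mM MgCl2 and 0.9 mM DTT. Enzyme: full-length Sf21-expressed PKCι (~15 pM); ATP 150 μM, five times KM^APP; FAM-labelled peptide 100 nM; DMSO 4%.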

| pIC50 | Structure (SMILES) |
| --- | --- |
| > 7.00 | Fc1cc(F)c(Nc2cc(-c3nc(N[C@@H]4CCNC4)c4c(C5CC5)cncc4n3)ccn2)nc1F [Example 2056, {5-Cyclopropyl-2-[2-(3,5,6-tritluoro-pyridin-2-ylamino)-pyridin-4-yl]-pyrido[3,4-d]pyrimidin-4-yl}-(R)-pyrrolidin-3-yl-amine] |
| > 7.00 | Fc1cc(F)c(F)c(Nc2cc(-c3nc(NC4CCNCC4)c4c(C5CC5)cncc4n3)ccn2)n1 [Example 2062, {5-Cyclopropyl-2-[2-(3,4,6-trifluoro-pyridin-2-ylamino)-pyridin-4-yl]-pyrido[3,4-d]pyrimidin-4-yl}-piperidin-4-yl-amine] |
| > 7.00 | c1ccc(C2(c3cc4c(-c5nc(N6CCNCC6)c6c(C7CC7)cncc6n5)ccnc4[nH]3)CCC2)cc1 [Example 2064, 5-Cyclopropyl-2-[2-(1-phenyl-cyclobutyl)-1H-pyrrolo[2,3-b]pyridin-4-yl]-4-piperazin-1-yl-pyrido[3,4-d]pyrimidine] |
| > 7.00 | C[C@@H](Nc1cc(-c2nc(N3CCNCC3)c3c(C4CC4)cncc3n2)ccn1)c1ccccc1F [Example 2067, [4-(5-Cyclopropyl-4-piperazin-1-yl-pyrido[3,4-d]pyrimidin-2-yl)-pyridin-2-yl]-[(R)-1-(2-fluoro-phenyl)-ethyl]-amine] |
| > 7.00 | c1ccn2nc(Nc3cc(-c4nc(N5CCNCC5)c5c(C6CC6)cncc5n4)ccn3)cc2c1 [Example 2072, [4-(5-Cyclopropyl-4-piperazin-1-yl-pyrido[3,4-d]pyrimidin-2-yl)-pyridin-2-yl]-pyrazolo[1,5-a]pyridin-2-yl-amine] |
| > 7.00 | C[C@@H]1CN(c2nc(-c3ccnc(NC4CCN(CC(F)(F)F)CC4)c3)nc3cncc(C4CC4)c23)C[C@H](C)N1 [Example 2073, {4-[5-Cyclopropyl-4-((cis)-3,5-dimethyl-piperazin-1-yl)-pyrido[3,4-d]pyrimidin-2-yl]-pyridin-2-yl}-[1-(2,2,2-trifluoro-ethyl)-piperidin-4-yl]-amine] |
| 6.00 to 7.00 | O=C1CC(Nc2nc(-c3ccnc(Nc4c(F)cccc4F)c3)nc3cncc(C4CC4)c23)CCN1 (centres unmarked) [Example 2076, 4-{5-Cyclopropyl-2-[2-(2,6-difluoro-phenylamino)-pyridin-4-yl]-pyrido[3,4-d]pyrimidin-4-ylamino}-piperidin-2-one] |
| 4.40 to 5.00 | Cn1c(C(F)(F)F)cc2c(-c3nc(N[C@@H]4CCNC4)c4c(C5CC5)cncc4n3)ccnc21 [Example 2077, [5-Cyclopropyl-2-(1-methyl-2-trifluoromethyl-1H-pyrrolo[2,3-b]pyridin-4-yl)-pyrido[3,4-d]pyrimidin-4-yl]-(R)-pyrrolidin-3-yl-amine] |
| > 7.00 | c1ccc2nc(Nc3cc(-c4nc(N5CCNCC5)c5c(C6CC6)cncc5n4)ccn3)ccc2c1 [Example 2078, [4-(5-Cyclopropyl-4-piperazin-1-yl-pyrido[3,4-d]pyrimidin-2-yl)-pyridin-2-yl]-[D4],[D3]uinolin-2-yl-amine] |
| > 7.00 | COCc1cc2c(-c3nc(N4CCNCC4)c4c(C5CCC5)cncc4n3)ccnc2[nH]1 [Example 2080, 5-Cyclobutyl-2-(2-methoxymethyl-1H-pyrrolo[2,3-b]pyridin-4-yl)-4-piperazin-1-yl-pyrido[3,4-d]pyrimidine] |

The next lines start with the compound.

| Structure (SMILES) | pIC50 |
| --- | --- |
| CN(c1nc(-c2ccnc(Nc3c(F)cccc3F)c2)nc2cncc(C3CC3)c12)[C@@H]1CCNC1 [Example 2057, {5-Cyclopropyl-2-[2-(2,6-difluoro-phenylamino)-pyridin-4-yl]-pyrido[3,4-d]pyrimidin-4-yl}-methyl-(R)-pyrrolidin-3-yl-amine] | > 7.00 |
| Fc1cccc(F)c1Nc1cc(-c2nc(NC3CCCNCC3)c3c(C4CC4)cncc3n2)ccn1 (centres unmarked) [Example 2058, Azepan-4-yl-{5-cyclopropyl-2-[2-(2,6-difluoro-phenylamino)-pyridin-4-yl]-pyrido[3,4-d]pyrimidin-4-yl}-amine] | > 7.00 |
| c1ccc2c(Nc3cc(-c4nc(N5CCNCC5)c5c(C6CC6)cncc5n4)ccn3)cccc2c1 [Example 2059, [4-(5-Cyclopropyl-4-piperazin-1-yl-pyrido[3,4-d]pyrimidin-2-yl)-pyridin-2-yl]-naphthalen-1-yl-amine] | > 7.00 |
| c1ccc2cc(Nc3cc(-c4nc(N5CCNCC5)c5c(C6CC6)cncc5n4)ccn3)ncc2c1 [Example 2060, [4-(5-Cyclopropyl-4-piperazin-1-yl-pyrido[3,4-d]pyrimidin-2-yl)-pyridin-2-yl]-iso[D4],[D3]uinolin-3-yl-amine] | > 7.00 |
| Cn1nc(Nc2cc(-c3nc(N4CCNCC4)c4c(C5CC5)cncc4n3)ccn2)c2ccccc21 [Example 2061, [4-(5-Cyclopropyl-4-piperazin-1-yl-pyrido[3,4-d]pyrimidin-2-yl)-pyridin-2-yl]-(1-methyl-1H-indazol-3-yl)-amine] | > 7.00 |
| CC(C)(c1cc2c(-c3nc(N4CCNCC4)c4c(C5CC5)cncc4n3)ccnc2[nH]1)C(F)(F)F [Example 2063, 5-Cyclopropyl-4-piperazin-1-yl-2-[2-(2,2,2-trifluoro-1,1-dimethyl-ethyl)-1H-pyrrolo[2,3-b]pyridin-4-yl]-pyrido[3,4-d]pyrimidine] | > 7.00 |
| Fc1cc(F)c(Nc2cc(-c3nc(NC4CCNCC4)c4c(C5CC5)cncc4n3)ccn2)nc1F [Example 2065, {5-Cyclopropyl-2-[2-(3,5,6-trifluoro-pyridin-2-ylamino)-pyridin-4-yl]-pyrido[3,4-d]pyrimidin-4-yl}-piperidin-4-yl-amine] | > 7.00 |
| CC(Nc1cc(-c2nc(N3CCNCC3)c3c(C4CC4)cncc3n2)ccn1)C1CCCO1 (centres unmarked) [Example 2066, [4-(5-Cyclopropyl-4-piperazin-1-yl-pyrido[3,4-d]pyrimidin-2-yl)-pyridin-2-yl]-[1-(tetrahydro-furan-2-yl)-ethyl]-amine] | > 7.00 |
| FC(F)(F)c1cc2c(-c3nc(NC4CCNCC4)c4c(C5CC5)cncc4n3)ccnc2[nH]1 [Example 2068, [5-Cyclopropyl-2-(2-trifluoromethyl-1H-pyrrolo[2,3-b]pyridin-4-yl)-pyrido[3,4-d]pyrimidin-4-yl]-piperidin-4-yl-amine] | > 7.00 |
| CN(c1nc(-c2ccnc3[nH]c(C(F)(F)F)cc23)nc2cncc(C3CC3)c12)C1CCNCC1 [Example 2070, [5-Cyclopropyl-2-(2-trifluoromethyl-1H-pyrrolo[2,3-b]pyridin-4-yl)-pyrido[3,4-d]pyrimidin-4-yl]-methyl-piperidin-4-yl-amine] | > 7.00 |
| FC(F)(F)c1cc2c(-c3nc(N4CCNCC4)c4c(C5CC5)cnc(Cl)c4n3)ccnc2[nH]1 [Example 2071, 8-Chloro-5-cyclopropyl-4-piperazin-1-yl-2-(2-trifluoromethyl-1H-pyrrolo[2,3-b]pyridin-4-yl)-pyrido[3,4-d]pyrimidine] | > 7.00 |
| Clc1cc2c(-c3nc(N4CCNCC4)c4c(C5CC5)cncc4n3)ccnc2[nH]1 [Example 2074, 2-(2-Chloro-1H-pyrrolo[2,3-b]pyridin-4-yl)-5-cyclopropyl-4-piperazin-1-yl-pyrido[3,4-d]pyrimidine] | > 7.00 |
| COCc1cc2c(-c3nc(N4CCNCC4)c4c(C5CC5)cncc4n3)ccnc2[nH]1 [Example 2075, 5-Cyclopropyl-2-(2-methoxymethyl-1H-pyrrolo[2,3-b]pyridin-4-yl)-4-piperazin-1-yl-pyrido[3,4-d]pyrimidine] | > 7.00 |
